{"source": "patent US8790654B2", "about": "“Glycosylceramide adjuvant for saccharide antigens” (Novartis AG, priority 2004, dated 2014)", "format_in_all_cases": "in vivo", "key": {"[1]": {"test_system": "S. pneumoniae-specific B cells", "assay": "Number of S. pneumoniae-specific B cells in spleens by Elispot", "conditions": "mice primed with 0.1 or 1.0 μg α-GalCer and boosted with 11.5 μg Streptopur 12 weeks later, compared with PBS prime and Streptopur boost; Elispot at 18-22 weeks"}, "[2]": {"test_system": "S. pneumoniae polysaccharides", "assay": "S. pneumoniae-specific antibody titres by ELISA in mice immunised with Streptopur with or without α-GalCer"}, "MenC polysaccharide": {"test_system": "MenC polysaccharide", "assay": "MenC-specific Ig titre in mice immunised with MenC, MenC+CRM or MenC-CRM conjugate with or without α-GalCer", "conditions": "30 μg MenC-CRM conjugate and α-GalCer, compared with MenC-CRM conjugate and PBS; three immunisations", "protocol": "C) Immunisation schedule for mice with different polysaccharides, plain, conjugated or admixed with protein carriers, with and without α-GalCer. Ten groups of wild-type C57BL/6 mice were primed on day 0 with: 1) PBS, 2) 0.1 μg with α-GalCer, 3) 10 μg MenC polysaccharide, 4) 20 μg CRM protein carrier, 5) 30 μg of a MenC-CRM conjugate, 6) 10 μg MenC polysaccharide admixed with CRM protein carrier, or the compositions in 3)-6) and α-GalCer (groups 7-10). Mice were boosted two and four weeks after they were primed with the same composition with which they were primed. Mice were bled 2, 4 and 6 weeks after initial priming (2wp1, 2wp2 and 2wp3) and the levels of antibodies against both the MenC polysaccharide and the CRM carrier were measured.\nFIG. 5: α-GalCer enhances the specific antibody response against both the MenC polysaccharide and the CRM protein carrier in a MenC-CRM conjugate. Wild-type mice were primed with 10 μg MenC polysaccharide, 20 μg CRM protein carrier, 10 μg MenC polysaccharide admixed with CRM protein carrier (MenC+CRM), or 30 μg of a MenC-CRM conjugate, or the same compositions with α-GalCer. […]\nFIG. 7: Antibody response is enhanced in mice immunised with α-GalCer and MenC-CRM conjugate. […] The MenC-specific titre was measured one week post the second immunisation (1wp2) and one week post third immunisation (1wp3)."}, "Hib": {"test_system": "Hib", "assay": "Hib-specific Ig titre in mice immunised with Hib-HSA conjugate mixed with PBS, α-GalCer or MF59", "conditions": "15 μg Hib-HSA conjugate mixed with α-GalCer, compared with Hib-HSA conjugate and PBS; three immunisations; 1wp2 and 1wp3", "protocol": "FIG. 11: Antibody response is enhanced in mice immunised with α-GalCer and Hib-HSA conjugate. […] Each group of mice was immunised three times. The Hib-specific titre was measured 1 week post the second immunisation (1wp2) and 1 week post the third immunisation (1wp3)."}, "MenA polysaccharide": {"test_system": "MenA polysaccharide", "assay": "MenA-specific antibody titres in mice immunised with MenA polysaccharide or MenA-CRM conjugate with or without α-GalCer", "protocol": "FIG. 6: α-GalCer enhances the immune response to a MenA-CRM conjugate. Mice were immunised with 10 μg MenA polysaccharide or MenA-CRM conjugate with or without α-GalCer. Antibodies titres against the MenA polysaccharide were measured 4, 8 and 12 days post priming. α-GalCer enhanced the immune response to the MenA polysaccharide."}}, "note": "Entries after “also recorded” stand apart in the source; their conditions may differ."}
{"smiles": "CCCCCCCCCCCCCCCCCCCCCCCCCC(=O)N[C@@H](CO[C@H]1O[C@H](CO)[C@H](O)[C@H](O)[C@H]1O)[C@H](O)[C@H](O)CCCCCCCCCCCCCC", "note": "[α-GalCer, α-galactosylceramide]", "values": [{"measurement": "Number of S. pneumoniae-specific B cells per 10^6 splenocytes", "setting": "[1]", "result": "lower numbers"}, {"measurement": "S. pneumoniae specific IgM antibodies (geomean) by age of mice", "setting": "[2]; 8 days after priming mice of different ages with 3.5 μg Streptopur and 0.1 μg α-GalCer, compared with Streptopur alone", "result": "suppresses; also recorded: suppression"}, {"measurement": "S. pneumoniae-specific antibody titres in NKT-deficient mice", "setting": "[2]; JA18−/−, CD1d−/− and CD1d−/+ mice primed with 3.5 μg Streptopur and 0.1 μg α-GalCer, compared with Streptopur alone, 4, 8, 12 days after priming", "result": "no significant difference"}, {"measurement": "S. pneumoniae-specific antibody titers after boost", "setting": "[2]; mice primed with Streptopur and 0.1 μg α-GalCer and boosted with Streptopur, compared with primed and boosted with Streptopur alone, 8 days after boosting", "result": "lower"}, {"measurement": "S. pneumoniae-specific antibody titres (IgM, geomean)", "setting": "[2]; wild-type C57BL/6 mice primed i.m. with Streptopur and 0.1 μg α-GalCer, compared with Streptopur alone, 4, 8, 12 days after priming", "result": "lower; also recorded: reduced"}, {"measurement": "MenC-specific Ig titres", "setting": "MenC polysaccharide", "result": "enhanced; also recorded: significant increase"}, {"measurement": "Hib-specific Ig titres", "setting": "Hib", "result": "enhanced; also recorded: considerably higher"}, {"measurement": "MenA-specific Ig titres", "setting": "MenA polysaccharide; MenA-CRM conjugate and α-GalCer, compared with conjugate without α-GalCer, 4, 8, 12 days post priming", "result": "enhances; also recorded: increase"}, {"measurement": "Inhibitory action on the response to unconjugated MenA saccharides", "setting": "MenA polysaccharide; unconjugated MenA polysaccharide with α-GalCer", "result": "not observed"}]}
